Assays:
Streptococcus mutans [1] = test: Colony formation of Streptococcus mutans on solid minimal medium, single carbon source; format: cell-based, Streptococcus mutans ATCC 25175; conditions: 10 g/L as single carbon source, 30 h
Experimental: Strains used in the present experiment are Streptococcus mutans ATCC 25175, S. oralis, and S. sanguinis. Representatively, Streptococcus mutans ATCC 25175 was pre-cultured in a brain-heart infusion (BHI) medium for 12 hours, and was washed twice with a 2 mM potassium phosphate buffer, and then was subjected to main culture in a minimal medium prepared with reference to the previously reported document (Fujiwara et al (1978) Arch Oral Biol. 23, 601-602) at 37° C. and 180 rpm. The composition of the minimal medium includes, in 5 mL of a 50 mM Tris-HCl buffer (pH 7.4), 10 mg of L-glutamic acid, 1 mg of cysteine hydrochloride, 4.5 mg of L-leucine, 5 mg of ammonium chloride, 17.5 mg of potassium hydrogen phosphate, 7.5 mg of potassium dihydrogen phosphate, 21 mg of a carbonate, 6 mg of magnesium sulfate heptahydrate, 0.1 mg of manganese chloride tetrahydrate, 3 mg of sodium pyruvate, 5 μg of riboflavin, 2.5 μg of thiamine hydrochloride, 0.5 μg of biotin, 5 μg of nicotinic acid, 0.5 μg of p-aminobenzoic acid, 2.5 μg of calcium pantothenate, and 5 μg of pyridoxine hydrochloride. To verify an effect of inhibiting the growth of Streptococcus mutans under a single carbon source condition, Streptococcus mutans was cultured in a solid minimal medium and a liquid minimal medium that contained 10 g/L of each of 3,6-anhydro-L-galactose, glucose, and xylitol. […]

Streptococcus mutans [2] = test: Growth of Streptococcus mutans in liquid minimal medium, single carbon source (absorbance 600 nm); format: cell-based, Streptococcus mutans ATCC 25175; conditions: 10 g/L single carbon source, 20 h after entering a stationary phase
Experimental: Strains used in the present experiment are Streptococcus mutans ATCC 25175, S. oralis, and S. sanguinis. Representatively, Streptococcus mutans ATCC 25175 was pre-cultured in a brain-heart infusion (BHI) medium for 12 hours, and was washed twice with a 2 mM potassium phosphate buffer, and then was subjected to main culture in a minimal medium prepared with reference to the previously reported document (Fujiwara et al (1978) Arch Oral Biol. 23, 601-602) at 37° C. and 180 rpm. The composition of the minimal medium includes, in 5 mL of a 50 mM Tris-HCl buffer (pH 7.4), 10 mg of L-glutamic acid, 1 mg of cysteine hydrochloride, 4.5 mg of L-leucine, 5 mg of ammonium chloride, 17.5 mg of potassium hydrogen phosphate, 7.5 mg of potassium dihydrogen phosphate, 21 mg of a carbonate, 6 mg of magnesium sulfate heptahydrate, 0.1 mg of manganese chloride tetrahydrate, 3 mg of sodium pyruvate, 5 μg of riboflavin, 2.5 μg of thiamine hydrochloride, 0.5 μg of biotin, 5 μg of nicotinic acid, 0.5 μg of p-aminobenzoic acid, 2.5 μg of calcium pantothenate, and 5 μg of pyridoxine hydrochloride. […] The bacteria were main-cultured using the method of Example 5 for 35 h, and a degree of the cell growth was measured by measuring the absorbance of a culture at a wavelength of 600 nm every 5 h.

Streptococcus mutans [3] = test: Growth inhibition under mixed carbon source condition (10 g/L glucose), 96-well plate; format: cell-based, Streptococcus mutans ATCC 25175
Experimental: (§1) Strains used in the present experiment are Streptococcus mutans ATCC 25175, S. oralis, and S. sanguinis. Representatively, Streptococcus mutans ATCC 25175 was pre-cultured in a brain-heart infusion (BHI) medium for 12 hours, and was washed twice with a 2 mM potassium phosphate buffer, and then was subjected to main culture in a minimal medium prepared with reference to the previously reported document (Fujiwara et al (1978) Arch Oral Biol. 23, 601-602) at 37° C. and 180 rpm. […] Small amounts of Streptococcus mutans, S. oralis, and S. sanguinis were cultured, using the method of Example 5, in 200 μl of a liquid minimal medium containing 10 g/L of glucose and 3,6-anhydro-L-galactose or xylitol according to concentration in a 96-well plate, and growth inhibitory effects thereof were observed by measuring absorbance at a wavelength of 600 nm according to time. […]

S. sanguinis = test: as above; format: cell-based; conditions: 60 g/L added to 10 g/L glucose
Experimental: as §1

Streptococcus mutans [4] = test: Growth and acid production under mixed carbon source condition, 5 mL culture, absorbance and HPLC; format: cell-based, Streptococcus mutans ATCC 25175
Experimental: Strains used in the present experiment are Streptococcus mutans ATCC 25175, S. oralis, and S. sanguinis. Representatively, Streptococcus mutans ATCC 25175 was pre-cultured in a brain-heart infusion (BHI) medium for 12 hours, and was washed twice with a 2 mM potassium phosphate buffer, and then was subjected to main culture in a minimal medium prepared with reference to the previously reported document (Fujiwara et al (1978) Arch Oral Biol. 23, 601-602) at 37° C. and 180 rpm. The composition of the minimal medium includes, in 5 mL of a 50 mM Tris-HCl buffer (pH 7.4), 10 mg of L-glutamic acid, 1 mg of cysteine hydrochloride, 4.5 mg of L-leucine, 5 mg of ammonium chloride, 17.5 mg of potassium hydrogen phosphate, 7.5 mg of potassium dihydrogen phosphate, 21 mg of a carbonate, 6 mg of magnesium sulfate heptahydrate, 0.1 mg of manganese chloride tetrahydrate, 3 mg of sodium pyruvate, 5 μg of riboflavin, 2.5 μg of thiamine hydrochloride, 0.5 μg of biotin, 5 μg of nicotinic acid, 0.5 μg of p-aminobenzoic acid, 2.5 μg of calcium pantothenate, and 5 μg of pyridoxine hydrochloride. To verify an effect of 3,6-anhydro-L-galactose or xylitol on the growth of Streptococcus mutans and acid production, Streptococcus mutans bacteria were cultured, using the method of Example 5, in 5 mL of a liquid minimal medium containing 10 g/L of glucose and 0 g/L, 5 g/L or 10 g/L of 3,6-anhydro-L-galactose or 20 g/L or 40 g/L of xylitol for 35 h, and cell growth was measured using absorbance every 5 hours and concentrations of an extracellular substrate and acid production were measured by HPLC. A glucose only-added condition was set as a negative control, and a glucose- and xylitol-added condition was set as a positive control. A column used for analysis was Aminex HPX-87H, and 0.01 N of sulfuric acid as a mobile phase was flowed at a rate of 0.5 mL/min and 65° C.

S. mutans [5] = test: Inhibitory effects under sucrose, fructose or maltose conditions, 96-well plate; format: cell-based, Streptococcus mutans; conditions: for non-growth rate: 40 g/L added
Experimental: Strains used in the present experiment are Streptococcus mutans ATCC 25175, S. oralis, and S. sanguinis. Representatively, Streptococcus mutans ATCC 25175 was pre-cultured in a brain-heart infusion (BHI) medium for 12 hours, and was washed twice with a 2 mM potassium phosphate buffer, and then was subjected to main culture in a minimal medium prepared with reference to the previously reported document (Fujiwara et al (1978) Arch Oral Biol. 23, 601-602) at 37° C. and 180 rpm. The composition of the minimal medium includes, in 5 mL of a 50 mM Tris-HCl buffer (pH 7.4), 10 mg of L-glutamic acid, 1 mg of cysteine hydrochloride, 4.5 mg of L-leucine, 5 mg of ammonium chloride, 17.5 mg of potassium hydrogen phosphate, 7.5 mg of potassium dihydrogen phosphate, 21 mg of a carbonate, 6 mg of magnesium sulfate heptahydrate, 0.1 mg of manganese chloride tetrahydrate, 3 mg of sodium pyruvate, 5 μg of riboflavin, 2.5 μg of thiamine hydrochloride, 0.5 μg of biotin, 5 μg of nicotinic acid, 0.5 μg of p-aminobenzoic acid, 2.5 μg of calcium pantothenate, and 5 μg of pyridoxine hydrochloride. Under conditions of fermentable sugars other than glucose, for example, sucrose, fructose, and maltose, inhibitory effects of AHG and xylitol on S. mutans were investigated. An experiment was carried out in a 96-well plate containing 0 g/L to 10 g/L of AHG or 0 g/L to 40 g/L of xylitol in a specified minimal medium containing 10 g/L of each of sucrose, fructose, and maltose.

S. mutans [6] = conditions: background statement; cited from earlier work

OC[C@@H](O)[C@H](O)[C@@H](O)CO [xylitol]
formation of colonies compared to the glucose condition (Streptococcus mutans [1]): inhibited | dry cell weight (DCW) of Streptococcus mutans (Streptococcus mutans [2]): 1.46 g/L | growth of Streptococcus mutans, concentration dependence (Streptococcus mutans [3]; 0-60 g/L added to 10 g/L glucose): inhibited as the treated concentration of xylitol was increased | growth of Streptococcus mutans (Streptococcus mutans [3]; 40 g/L added to 10 g/L glucose): considerable cell growth was observed | inhibitory effect on S. sanguinis (S. sanguinis): strong inhibitory effect | concentration of produced acetic acid (Streptococcus mutans [4]; 20 g/L in 10 g/L glucose): 0.55 g/L | concentration of produced lactic acid (Streptococcus mutans [4]; 20 g/L in 10 g/L glucose): 3.67 g/L | final dry cell weight (Streptococcus mutans [4]; 20 g/L in 10 g/L glucose): 1.42 g/L | glucose consumed (Streptococcus mutans [4]; 20 g/L in 10 g/L glucose): 5.28 g/L | non-growth rate (Streptococcus mutans [4]; 20 g/L in 10 g/L glucose): 0.087 h⁻¹ | concentration of consumed glucose (Streptococcus mutans [4]; 40 g/L in 10 g/L glucose): 5.42 g/L | concentration of produced acetic acid (Streptococcus mutans [4]; 40 g/L in 10 g/L glucose): 0.55 g/L | concentration of produced lactic acid (Streptococcus mutans [4]; 40 g/L in 10 g/L glucose): 3.67 g/L | inhibition of growth of Streptococcus mutans and acid production (Streptococcus mutans [4]; 40 g/L in 10 g/L glucose): did not completely inhibit | lag phase (Streptococcus mutans [4]; 40 g/L in 10 g/L glucose, compared with 20 g/L): longer | use as a carbon source / fermentation by Streptococcus mutans (Streptococcus mutans [4]; in 10 g/L glucose): non-fermentation properties | concentration of the added sugar during culture (Streptococcus mutans [4]; in 10 g/L glucose, 35 h culture): constantly maintained | non-growth rate (S. mutans [5]; 10 g/L fructose): 0.085 h⁻¹ | non-growth rate (S. mutans [5]; 10 g/L maltose): 0.045 h⁻¹ | cell growth of S. mutans, concentration dependence (S. mutans [5]; 10 g/L sucrose, 0-40 g/L added): decreased as the concentration of xylitol was increased | non-growth rate (S. mutans [5]; 10 g/L sucrose): 0.061 h⁻¹ | cell growth of S. mutans (S. mutans [5]; 10 g/L sucrose, 40 g/L added (maximum concentration)): did not completely inhibit | concentration at which the growth of S. mutans can be inhibited (S. mutans [6]): ≥ 25 g/L
